ChEMBL document CHEMBL1136414, “Structure-activity relationship of linear peptide Bu-His-DPhe-Arg-Trp-Gly-NH(2) at the human melanocortin-1 and -4 receptors: histidine substitution” (Bioorg Med Chem Lett, 2003)

Legend:
Melanocortin receptor 4 [1] = target: T1, Melanocortin receptor 4 (Homo sapiens, UniProt P32245); test: Percent inhibition of human melanocortin receptor hMC4R at the concentration of 50 uM
[2] = target: T2, Melanocyte-stimulating hormone receptor (Homo sapiens, UniProt Q01726); test: Agonist activity against human melanocortin receptor hMC1R; format: functional
Target sequence in this assay (Q01726 whole entry): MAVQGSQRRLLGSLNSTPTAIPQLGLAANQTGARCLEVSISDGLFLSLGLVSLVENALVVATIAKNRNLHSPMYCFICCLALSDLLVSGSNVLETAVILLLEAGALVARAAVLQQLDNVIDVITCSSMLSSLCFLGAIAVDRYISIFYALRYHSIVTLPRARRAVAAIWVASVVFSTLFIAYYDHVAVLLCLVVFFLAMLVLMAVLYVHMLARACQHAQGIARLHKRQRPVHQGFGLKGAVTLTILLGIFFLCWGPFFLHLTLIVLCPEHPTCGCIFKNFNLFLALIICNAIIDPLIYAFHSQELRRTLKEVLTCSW

Melanocortin receptor 3 [3] = target: T3, Melanocortin receptor 3 (Homo sapiens, UniProt P41968); test: Agonist activity against human melanocortin receptor hMC3R measured as percent cAMP accumulation at the concentration of 50 uM; format: functional
T3 sequence (P41968 whole entry): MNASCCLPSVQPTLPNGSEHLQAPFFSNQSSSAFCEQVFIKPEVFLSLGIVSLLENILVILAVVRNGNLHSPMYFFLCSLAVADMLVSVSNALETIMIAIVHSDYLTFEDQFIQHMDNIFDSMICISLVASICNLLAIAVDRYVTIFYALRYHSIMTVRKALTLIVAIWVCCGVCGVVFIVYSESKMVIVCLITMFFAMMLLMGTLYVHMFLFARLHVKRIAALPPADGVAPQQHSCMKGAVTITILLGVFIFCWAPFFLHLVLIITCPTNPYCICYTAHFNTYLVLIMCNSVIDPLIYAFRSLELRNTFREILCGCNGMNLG

Melanocortin receptor 5 [4] = target: T4, Melanocortin receptor 5 (Homo sapiens, UniProt P33032); test: Agonist activity against human melanocortin receptor hMC5R measured as percent cAMP accumulation at the concentration of 50 uM; format: functional
T4 sequence (P33032 whole entry): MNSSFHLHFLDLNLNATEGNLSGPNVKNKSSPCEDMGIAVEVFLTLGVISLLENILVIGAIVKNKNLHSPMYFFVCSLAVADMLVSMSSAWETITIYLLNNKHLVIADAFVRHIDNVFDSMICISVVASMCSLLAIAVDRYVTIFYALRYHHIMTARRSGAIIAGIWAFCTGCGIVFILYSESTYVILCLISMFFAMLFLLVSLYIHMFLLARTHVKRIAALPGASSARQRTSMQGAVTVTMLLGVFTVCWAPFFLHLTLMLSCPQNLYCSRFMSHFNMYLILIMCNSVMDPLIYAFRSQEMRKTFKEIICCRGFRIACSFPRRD

Melanocortin receptor 4 [5] = target: T1, Melanocortin receptor 4; test: Agonist activity against human melanocortin receptor hMC4R; format: functional
[6] = target: T2, Melanocyte-stimulating hormone receptor; test: (§1) Agonist activity against human melanocortin receptor hMC1R at 50% maximum cAMP accumulation; format: functional
Target sequence in this assay (Q01726 whole entry): as the sequence (Q01726 whole entry) above

Melanocortin receptor 4 [7] = target: T1, Melanocortin receptor 4; test: Binding affinity towards human melanocortin receptor hMC4R by using radioligand NDP-MSH
Melanocortin receptor 5 [8] = target: T4, Melanocortin receptor 5; test: Binding affinity towards human melanocortin receptor hMC5R by using radioligand NDP-MSH
Melanocortin receptor 3 [9] = target: T3, Melanocortin receptor 3; test: Binding affinity towards human melanocortin receptor hMC3R by using radioligand NDP-MSH
[10] = target: T2, Melanocyte-stimulating hormone receptor; test: Binding affinity towards human melanocortin receptor hMC1R by using radioligand NDP-MSH
Target sequence in this assay (Q01726 whole entry): as above

[11] = target: T2, Melanocyte-stimulating hormone receptor; test: Percent inhibition of human melanocortin receptor hMC1R at the concentration of 50 uM
Target sequence in this assay (Q01726 whole entry, looked up): as the sequence (Q01726 whole entry) above

[12] = target: T2, Melanocyte-stimulating hormone receptor; test: as §1; format: functional; remark: listed apart in the source
Target sequence in this assay (Q01726 whole entry, looked up): as the sequence (Q01726 whole entry) above

Melanocortin receptor 4 [13] = target: T1, Melanocortin receptor 4; test: Binding affinity towards human melanocortin receptor hMC4R by using radioligand NDP-MSH; not determined

T1 sequence (P32245 whole entry): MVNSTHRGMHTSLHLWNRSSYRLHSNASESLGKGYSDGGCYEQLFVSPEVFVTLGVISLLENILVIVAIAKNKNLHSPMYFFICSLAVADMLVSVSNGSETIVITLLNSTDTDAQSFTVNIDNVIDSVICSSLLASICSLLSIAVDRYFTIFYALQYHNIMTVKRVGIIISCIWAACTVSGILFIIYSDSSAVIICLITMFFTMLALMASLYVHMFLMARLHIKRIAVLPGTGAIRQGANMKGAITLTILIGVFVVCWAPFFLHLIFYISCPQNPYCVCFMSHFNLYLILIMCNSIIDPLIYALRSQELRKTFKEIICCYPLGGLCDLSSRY

SMILES	EC50 [2] [nM]	EC50 (Melanocortin receptor 4 [5]) [nM]	also measured
CCCCC(=O)NC1(C(=O)NC(Cc2ccccc2)C(=O)N[C@@H](CCCN=C(N)N)C(=O)N[C@@H](Cc2c[nH]c3ccccc23)C(=O)NCC(N)=O)CCc2cccc(Br)c2C1 (single isomer, unassigned)	1710	–	inhibition (Melanocortin receptor 4 [1]): 0%
CCCCC(=O)NC1(C(=O)N[C@H](Cc2ccccc2)C(=O)N[C@@H](CCCN=C(N)N)C(=O)N[C@@H](Cc2c[nH]c3ccccc23)C(=O)NCC(N)=O)CCc2c(cccc2N(C)C)C1 (single isomer, unassigned; isomer 2)	–	–	Accumulation (Melanocortin receptor 3 [3]): 0%; Accumulation (Melanocortin receptor 5 [4]): 24%
CCCCC(=O)N[C@]1(C(=O)N[C@H](Cc2ccccc2)C(=O)N[C@@H](CCCN=C(N)N)C(=O)N[C@@H](Cc2c[nH]c3ccccc23)C(=O)NCC(N)=O)CCc2ccccc2C1 (stereo in doubt; form 1)	830	45	–
CCCCC(=O)NC1(C(=O)NC(Cc2ccccc2)C(=O)N[C@@H](CCCNC(=N)N)C(=O)N[C@@H](Cc2c[nH]c3ccccc23)C(=O)NCC(N)=O)CCc2c(cccc2OCC)C1 (single isomer, unassigned)	990	120	–
CCCC(=O)N[C@@H](Cc1c[nH]cn1)C(=O)N[C@H](Cc1ccccc1)C(=O)N[C@@H](CCCN=C(N)N)C(=O)N[C@@H](Cc1c[nH]c2ccccc12)C(=O)NCC(N)=O	–	–	Accumulation (Melanocortin receptor 3 [3]): 0%; Accumulation (Melanocortin receptor 5 [4]): 0%
CCCCC(=O)NC1(C(=O)NC(Cc2ccccc2)C(=O)N[C@@H](CCCN=C(N)N)C(=O)N[C@@H](Cc2c[nH]c3ccccc23)C(=O)NCC(N)=O)CCc2cc(Br)ccc2C1 (single isomer, unassigned; form 1) [listing 1 of 2 here]	–	–	inhibition (Melanocortin receptor 4 [1]): 60%
CCCCC(=O)NC1(C(=O)N[C@H](Cc2ccccc2)C(=O)N[C@@H](CCCN=C(N)N)C(=O)N[C@@H](Cc2c[nH]c3ccccc23)C(=O)NCC(N)=O)CCc2c(cccc2N(C)C)C1 (single isomer, unassigned; isomer 1)	–	–	Accumulation (Melanocortin receptor 3 [3]): 0%; Accumulation (Melanocortin receptor 5 [4]): 0%
CCCCC(=O)NC1(C(=O)N[C@H](Cc2ccccc2)C(=O)N[C@@H](CCCNC(=N)N)C(=O)N[C@@H](Cc2c[nH]c3ccccc23)C(=O)NCC(N)=O)CCc2c(Cl)cccc2C1 (single isomer, unassigned; isomer 2)	890	130	–
CCCC(=O)N[C@@]1(C(=O)N[C@H](Cc2ccccc2)C(=O)N[C@@H](CCCN=C(N)N)C(=O)N[C@@H](Cc2c[nH]c3ccccc23)C(=O)NCC(N)=O)CCc2ccccc2C1 (stereo in doubt; form 2)	5640	2940	–
CCCC(=O)N[C@@H](Cc1cnc[nH]1)C(=O)N[C@H](Cc1ccccc1)C(=O)N[C@@H](CCCNC(=N)N)C(=O)N[C@@H](Cc1c[nH]c2ccccc12)C(=O)NCC(N)=O	10	20	EC50 [6]: 10 nM; IC50 (Melanocortin receptor 4 [7]): 150 nM; IC50 (Melanocortin receptor 5 [8]): 13300 nM; IC50 (Melanocortin receptor 3 [9]): 4000 nM; IC50 [10]: 580 nM
CCCCC(=O)NC1(C(=O)N[C@H](Cc2ccccc2)C(=O)N[C@@H](CCCNC(=N)N)C(=O)N[C@@H](Cc2c[nH]c3ccccc23)C(=O)NCC(N)=O)CCc2c(cccc2N(C)C)C1 (single isomer, unassigned; isomer 1)	940	2	EC50 [6]: 940 nM; IC50 (Melanocortin receptor 4 [7]): 25 nM; IC50 [10]: 25500 nM
CCCCC(=O)NC1(C(=O)NC(Cc2ccccc2)C(=O)N[C@@H](CCCN=C(N)N)C(=O)N[C@@H](Cc2c[nH]c3ccccc23)C(=O)NCC(N)=O)CCc2cc(Br)ccc2C1 (single isomer, unassigned; form 1) [listing 2 of 2 here]	3380	–	–
CCCCC(=O)NC1(C(=O)N[C@H](Cc2ccccc2)C(=O)N[C@@H](CCCN=C(N)N)C(=O)N[C@@H](Cc2c[nH]c3ccccc23)C(=O)NCC(N)=O)CCc2cccc(Br)c2C1 (single isomer, unassigned; isomer 2)	2910	–	inhibition (Melanocortin receptor 4 [1]): 0%
CCCC(=O)N[C@@H](C)C(=O)NC(Cc1ccccc1)C(=O)N[C@@H](CCCN=C(N)N)C(=O)N[C@@H](Cc1c[nH]c2ccccc12)C(=O)NCC(N)=O (single isomer, unassigned)	230	180	–
CCCCC(=O)NC1(C(=O)NC(Cc2ccccc2)C(=O)N[C@@H](CCCNC(=N)N)C(=O)N[C@@H](Cc2c[nH]c3ccccc23)C(=O)NCC(N)=O)CCc2c(CC)cccc2C1 (single isomer, unassigned)	195	24	–
CCCCC(=O)NC1(C(=O)NC(Cc2ccccc2)C(=O)N[C@@H](CCCN=C(N)N)C(=O)N[C@@H](Cc2c[nH]c3ccccc23)C(=O)NCC(N)=O)CCc2cc(Br)ccc2C1 (single isomer, unassigned; form 2) [listing 1 of 2 here]	4630	–	–
CCCCC(=O)NC1(C(=O)N[C@H](Cc2ccccc2)C(=O)N[C@@H](CCCN=C(N)N)C(=O)N[C@@H](Cc2c[nH]c3ccccc23)C(=O)NCC(N)=O)CCc2c(Br)cccc2C1 (single isomer, unassigned; isomer 2)	–	–	Accumulation (Melanocortin receptor 3 [3]): 0%; Accumulation (Melanocortin receptor 5 [4]): 32%; inhibition [11]: 50%
CCCCC(=O)NC1(C(=O)NC(Cc2ccccc2)C(=O)N[C@@H](CCCN=C(N)N)C(=O)N[C@@H](Cc2c[nH]c3ccccc23)C(=O)NCC(N)=O)CCc2ccc(Br)cc2C1 (single isomer, unassigned)	–	–	inhibition (Melanocortin receptor 4 [1]): 40%; inhibition [11]: 0%
CCCCC(=O)NC1(C(=O)N[C@H](Cc2ccccc2)C(=O)N[C@@H](CCCNC(=N)N)C(=O)N[C@@H](Cc2c[nH]c3ccccc23)C(=O)NCC(N)=O)CCc2c(cccc2N(C)C)C1 (single isomer, unassigned; isomer 2)	1850	16	EC50 [6]: 1850 nM; IC50 (Melanocortin receptor 4 [7]): 150 nM; IC50 [10]: 21700 nM
CCCCC(=O)NC1(C(=O)NC(Cc2ccccc2)C(=O)N[C@@H](CCCN=C(N)N)C(=O)N[C@@H](Cc2c[nH]c3ccccc23)C(=O)NCC(N)=O)CCc2cc(Br)ccc2C1 (single isomer, unassigned; form 2) [listing 2 of 2 here]	–	–	inhibition (Melanocortin receptor 4 [1]): 50%
CCCCC(=O)NC1(C(=O)NC(Cc2ccccc2)C(=O)N[C@@H](CCCN=C(N)N)C(=O)N[C@@H](Cc2c[nH]c3ccccc23)C(=O)NCC(N)=O)CCc2c(Br)cccc2C1 (single isomer, unassigned)	–	33	IC50 (Melanocortin receptor 4 [7]): 200 nM; Accumulation (Melanocortin receptor 3 [3]): 0%; Accumulation (Melanocortin receptor 5 [4]): 0%; inhibition [11]: 75%; Accumulation [12]: 75%; IC50 [10]: 4900 nM
CCCCC(=O)NC1(C(=O)NC(Cc2ccccc2)C(=O)N[C@@H](CCCNC(=N)N)C(=O)N[C@@H](Cc2c[nH]c3ccccc23)C(=O)NCC(N)=O)CCc2c(C)cccc2C1 (single isomer, unassigned)	1220	35	–
CCCCC(=O)NC1(C(=O)NC(Cc2ccccc2)C(=O)N[C@@H](CCCNC(=N)N)C(=O)N[C@@H](Cc2c[nH]c3ccccc23)C(=O)NCC(N)=O)CCc2c(cccc2OC(C)C)C1 (single isomer, unassigned)	680	130	–
CCCC(=O)N[C@@]1(C(=O)N[C@H](Cc2ccccc2)C(=O)N[C@@H](CCCN=C(N)N)C(=O)N[C@@H](Cc2c[nH]c3ccccc23)C(=O)NCC(N)=O)CCc2ccccc2C1 (stereo in doubt; form 1)	4380	290	–
CCCCC(=O)NC1(C(=O)NC(Cc2ccccc2)C(=O)N[C@@H](CCCNC(=N)N)C(=O)N[C@@H](Cc2c[nH]c3ccccc23)C(=O)NCC(N)=O)CCc2c(cccc2C(C)C)C1 (single isomer, unassigned)	295	13	–
CCCCC(=O)NC1(C(=O)N[C@H](Cc2ccccc2)C(=O)N[C@@H](CCCNC(=N)N)C(=O)N[C@@H](Cc2c[nH]c3ccccc23)C(=O)NCC(N)=O)CCc2c(Br)cccc2C1 (single isomer, unassigned; isomer 2)	–	35	IC50 (Melanocortin receptor 4 [13]): 105 nM; IC50 [10]: 5100 nM
CCCCC(=O)N[C@]1(C(=O)N[C@H](Cc2ccccc2)C(=O)N[C@@H](CCCN=C(N)N)C(=O)N[C@@H](Cc2c[nH]c3ccccc23)C(=O)NCC(N)=O)CCc2ccccc2C1 (stereo in doubt; form 2)	1950	1000	–
CCCCC(=O)NC1(C(=O)NC(Cc2ccccc2)C(=O)N[C@@H](CCCNC(=N)N)C(=O)N[C@@H](Cc2c[nH]c3ccccc23)C(=O)NCC(N)=O)CCc2c(Cl)cccc2C1 (single isomer, unassigned)	1400	600	–
CCCCC(=O)NC1(C(=O)NC(Cc2ccccc2)C(=O)N[C@@H](CCCNC(=N)N)C(=O)N[C@@H](Cc2c[nH]c3ccccc23)C(=O)NCC(N)=O)CCc2c(cccc2OC)C1 (single isomer, unassigned)	1480	90	–
